The source of these data is ChEMBL document CHEMBL2010698 (J Med Chem, 2012).

pIC50: −log10 of the molar value.

The target in series [1] is T1, Beta-secretase 1 (Homo sapiens, UniProt P56817). The series is described as follows: Inhibition of human recombinant BACE-1 using M-2420 as substrate preincubated for 1 hr prior substrate addition measured after 15 mins by spectrofluorimetry.
Series [2] has as its target T2, Acetylcholinesterase (Homo sapiens, UniProt P22303).
Description: Inhibition of human recombinant AChE using acetylthiocholine iodide as substrate preincubated for 20 mins prior substrate addition measured after 5 mins by spectrophotometry
The target in series [3] is T3, Cholinesterase (Homo sapiens, UniProt P06276).
T3 sequence (P06276 whole entry): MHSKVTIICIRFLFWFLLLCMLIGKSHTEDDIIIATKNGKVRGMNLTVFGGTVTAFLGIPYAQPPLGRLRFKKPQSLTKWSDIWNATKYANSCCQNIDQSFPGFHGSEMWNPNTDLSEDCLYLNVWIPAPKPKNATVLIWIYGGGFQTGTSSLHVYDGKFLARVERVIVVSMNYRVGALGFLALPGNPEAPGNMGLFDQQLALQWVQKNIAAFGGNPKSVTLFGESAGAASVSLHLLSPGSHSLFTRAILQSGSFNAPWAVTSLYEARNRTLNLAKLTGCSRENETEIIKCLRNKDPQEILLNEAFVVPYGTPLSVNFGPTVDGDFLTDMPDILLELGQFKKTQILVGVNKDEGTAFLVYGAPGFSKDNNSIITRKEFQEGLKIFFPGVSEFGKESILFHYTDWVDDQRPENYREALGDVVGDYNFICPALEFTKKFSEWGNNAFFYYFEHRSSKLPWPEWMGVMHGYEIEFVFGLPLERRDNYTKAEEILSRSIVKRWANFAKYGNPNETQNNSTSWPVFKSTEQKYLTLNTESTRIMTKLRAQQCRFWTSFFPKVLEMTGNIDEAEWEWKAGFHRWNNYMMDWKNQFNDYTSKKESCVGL
Description: Inhibition of human serum BChE using butyrylthiocholine iodide as substrate preincubated for 20 mins prior substrate addition measured after 5 mins by spectrophotometry
Series [4] addresses T3, Cholinesterase. In words: Ratio of (+/-)-huprine Y IC50 to compound IC50 for human serum BChE.
A short description of series [5]: in vitro. Particulars: pig, PAMPA. Background: PAMPA measures passive passage across an artificial lipid membrane.
Description: Permeability across porcine brain lipid layer after 240 mins by PAMPA-BBB assay
In series [6] the target is T1, Beta-secretase 1. Particulars: 5 uM.
Description: Inhibition of human recombinant BACE-1 using panvera peptide as substrate at 5 uM preincubated for 60 mins prior substrate addition measured after 60 mins by spectrofluorimetry
The nature of series [7]: Inhibition of self-induced Abeta1-42 aggregation after 24 hrs by thioflavin T fluorescence method.
Series [8] concerns the target T2, Acetylcholinesterase. The source holds these as a separate data set.
Description: Competitive inhibition of human recombinant AChE by Lineweaver-Burk plot analysis
Series [9] concerns the target T4, Acetylcholinesterase (Bos taurus, UniProt P23795).
T4 sequence (P23795 whole entry): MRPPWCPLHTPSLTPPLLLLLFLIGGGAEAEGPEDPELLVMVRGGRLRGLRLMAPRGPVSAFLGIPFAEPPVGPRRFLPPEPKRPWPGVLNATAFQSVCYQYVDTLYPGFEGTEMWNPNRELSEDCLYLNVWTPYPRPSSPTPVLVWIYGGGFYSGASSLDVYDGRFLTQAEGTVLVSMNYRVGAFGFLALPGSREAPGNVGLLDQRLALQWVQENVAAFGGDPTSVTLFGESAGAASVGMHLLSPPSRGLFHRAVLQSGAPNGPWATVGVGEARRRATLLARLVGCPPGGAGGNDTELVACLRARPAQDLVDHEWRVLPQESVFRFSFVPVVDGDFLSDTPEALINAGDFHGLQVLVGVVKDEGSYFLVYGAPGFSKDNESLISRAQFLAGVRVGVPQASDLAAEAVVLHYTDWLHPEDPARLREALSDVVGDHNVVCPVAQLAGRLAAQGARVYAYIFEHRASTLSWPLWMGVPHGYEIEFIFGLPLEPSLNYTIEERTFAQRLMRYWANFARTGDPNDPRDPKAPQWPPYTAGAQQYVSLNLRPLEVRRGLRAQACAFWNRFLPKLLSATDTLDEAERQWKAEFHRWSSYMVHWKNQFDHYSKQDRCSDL
The series is described as follows: Inhibition of bovine AChE-induced coumarin-tagged PrP106-126 aggregation after 48 hrs by fluorescence microscopy.

The species named for series [10] is Mus musculus. The series is described as follows: animal or person. Particulars: OF1, Brain, ip, 20 min, read-out: INH.
For series [11], the target named is T2, Acetylcholinesterase. In words: Inhibition of human recombinant AChE-induced Abeta1-40 aggregation by thioflavin T fluorescence method.

The term pIC50 denotes −log10 of the IC50, conventionally taken in molar units. Usually Papp stands for a coefficient for how fast a substance crosses the barrier. A word on the inhibition: it is the drop in the measured response relative to a control, in per cent. A higher inhibition goes with strong suppression.

T1 sequence (P56817 whole entry): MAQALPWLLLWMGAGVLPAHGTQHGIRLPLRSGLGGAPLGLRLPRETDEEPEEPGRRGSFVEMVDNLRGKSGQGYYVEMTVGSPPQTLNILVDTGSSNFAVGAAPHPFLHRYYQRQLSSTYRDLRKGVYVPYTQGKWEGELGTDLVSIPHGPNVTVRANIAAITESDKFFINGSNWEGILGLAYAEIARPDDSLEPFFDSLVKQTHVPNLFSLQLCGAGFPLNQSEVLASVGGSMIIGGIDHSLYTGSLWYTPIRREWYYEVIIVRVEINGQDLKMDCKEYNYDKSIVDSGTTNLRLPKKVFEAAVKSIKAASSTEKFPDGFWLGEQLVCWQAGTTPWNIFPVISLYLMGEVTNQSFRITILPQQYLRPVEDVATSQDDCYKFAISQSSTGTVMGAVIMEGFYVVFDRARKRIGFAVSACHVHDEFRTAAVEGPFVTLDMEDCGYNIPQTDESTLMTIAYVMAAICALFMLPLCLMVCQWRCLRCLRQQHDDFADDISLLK
T2 sequence (P22303 whole entry): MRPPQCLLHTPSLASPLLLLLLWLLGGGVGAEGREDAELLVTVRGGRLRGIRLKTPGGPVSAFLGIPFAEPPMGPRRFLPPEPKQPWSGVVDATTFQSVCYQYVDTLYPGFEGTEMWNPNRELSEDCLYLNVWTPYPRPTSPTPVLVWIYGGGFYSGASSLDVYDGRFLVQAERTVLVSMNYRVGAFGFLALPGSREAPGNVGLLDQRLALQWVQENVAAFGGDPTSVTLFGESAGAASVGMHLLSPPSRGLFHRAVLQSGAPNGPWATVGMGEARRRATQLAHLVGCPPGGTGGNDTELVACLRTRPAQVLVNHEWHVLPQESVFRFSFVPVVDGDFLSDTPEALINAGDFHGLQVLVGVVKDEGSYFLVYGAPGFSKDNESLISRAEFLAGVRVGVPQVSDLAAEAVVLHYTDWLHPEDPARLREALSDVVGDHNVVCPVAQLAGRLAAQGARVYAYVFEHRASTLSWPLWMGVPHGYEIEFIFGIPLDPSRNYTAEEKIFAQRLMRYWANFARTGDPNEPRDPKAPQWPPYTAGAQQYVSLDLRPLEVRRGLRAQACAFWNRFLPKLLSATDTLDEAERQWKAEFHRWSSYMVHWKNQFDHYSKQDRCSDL

On to `CC1=C[C@H]2Cc3nc4cc(Cl)ccc4c(NCCCCCCCNc4c5c(nc6cc(Cl)ccc46)CCCC5)c3[C@@H](C1)C2`, for which the pIC50 in [1] was 5.23; in series [2], 7.94; in series [3], 7.32.
With `CC1=CC2Cc3nc4cc(Cl)ccc4c(NCCCCCCNc4c5c(nc6ccccc46)CCCC5)c3C(C1)C2.Cl` (racemic), the Ratio IC50 in series [4] amounted to 6. The negative logarithm of the IC50 (pIC50) is 9.05 in series [2] and 7.61 in series [3]. The Papp at 4 h in series [5] came to 10.7 ×10⁻⁶ cm/s.
Regarding `CC1=C[C@@H]2Cc3nc4cc(Cl)ccc4c(N)c3[C@H](C1)C2`, in [6], the inhibition worked out at 14%.
With `CC1=CC2Cc3nc4cc(Cl)ccc4c(NCCCCCCNc4c5c(nc6cc(Cl)ccc46)CCCC5)c3C(C1)C2.Cl` (racemic), the pIC50 in series [2] was 9.13; in [3] it was 7.12. Also, the Papp at 4 h in series [5] worked out at 12 ×10⁻⁶ cm/s.
`CC1=C[C@H]2Cc3nc4cc(Cl)ccc4c(N)c3[C@@H](C1)C2` showed an inhibition in series [6] of 13.6%.
As for `CC1=C[C@@H]2Cc3nc4cc(Cl)ccc4c(NCCCCCCCNc4c5c(nc6ccccc46)CCCC5)c3[C@H](C1)C2`, the negative logarithm of the IC50 (pIC50) in [7] was not below 5.00; in [2] it was 8.88; in [3] it was 6.88.
As to `CC1=CC2Cc3nc4cc(Cl)ccc4c(NCCCCCCCCCCNc4c5c(nc6ccccc46)CCCC5)c3C(C1)C2.Cl.Cl.Cl` (racemic), the results for the pIC50 in [1], in series [2] and in [3] were 5.14, 8.38 and 7.58, respectively. For the same compound, in series [4], the Ratio IC50 was 6. The compound further displayed a Papp at 4 h in [5] of 16.3 ×10⁻⁶ cm/s.
With `CC1=CC2Cc3nc4cc(Cl)ccc4c(NCCCN(C)CCCNc4c5c(nc6ccccc46)CCCC5)c3C(C1)C2.Cl` (racemic), the pIC50 is 9.38 in series [2] and 7.35 in series [3]. In series [5], this compound had a Papp at 4 h of 11.4 ×10⁻⁶ cm/s.
For `CC1=CC2Cc3nc4cc(Cl)ccc4c(NCCCCCCCCCCNc4c5c(nc6cc(Cl)ccc46)CCCC5)c3C(C1)C2.Cl.Cl.Cl.Cl` (racemic), the figures for the pIC50 in series [1], in series [2] and in series [3] were 5.18, 8.04 and 7.12, respectively. The compound also came in with an apparent permeability (Papp) at 4 h in series [5] of 29.1 ×10⁻⁶ cm/s.
As for `CC1=CC2Cc3nc4cc(Cl)ccc4c(NCCCCCCCCCNc4c5c(nc6cc(Cl)ccc46)CCCC5)c3C(C1)C2.Cl.Cl.Cl.Cl` (racemic), the results for the pIC50 in series [1], in series [2] and in series [3] were 5.24, 8.49 and 7.57, respectively. Further, the Ratio IC50 in series [4] was 6. In [5], this compound registered a Papp at 4 h of 15.6 ×10⁻⁶ cm/s.
With `CC1=C[C@@H]2Cc3nc4cc(Cl)ccc4c(NCCCCCCCNc4c5c(nc6cc(Cl)ccc46)CCCC5)c3[C@H](C1)C2`, the pIC50 in series [1] was 5.24; in series [2] it was 8.69; in series [3], 7.06. The compound further returned a Kic in series [8] of 1.51 nM.
Turning to `CC1=CC2Cc3nc4cc(Cl)ccc4c(N)c3C(C1)C2` (racemic), the pIC50 in series [3] was 6.76.
`CC1=CC2Cc3nc4cc(Cl)ccc4c(NCCCCCCCNc4c5c(nc6ccccc46)CCCC5)c3C(C1)C2.Cl.Cl.Cl` (racemic): the figures for the pIC50 in series [7], in series [2] and in series [3] were not below 5.00, 8.72 and 7.06, respectively. The Papp at 4 h in series [5] turned out to be 12.5 ×10⁻⁶ cm/s.
For the compound `CC1=CC2Cc3nc4cc(Cl)ccc4c(NCCCN(C)CCCNc4c5c(nc6cc(Cl)ccc46)CCCC5)c3C(C1)C2.Cl` (racemic), the negative logarithm of the IC50 (pIC50) is 9.51 in [2] and 7.29 in series [3]. Besides, the Papp at 4 h in series [5] amounted to 7 ×10⁻⁶ cm/s.
For the compound `CC1=CC2Cc3nc4cc(Cl)ccc4c(NCCCCCCCCNc4c5c(nc6cc(Cl)ccc46)CCCC5)c3C(C1)C2.Cl` (racemic), the pIC50 in [1] is 5.31; in series [9], 6.58; in [2], 8.88; in [3] it was 7.45. This compound registered a Papp at 4 h in [5] of 21.1 ×10⁻⁶ cm/s. Besides, the inhibition in vivo at 10 µmol/kg in [10] was 28.5%.
Turning to `CC1=CC2Cc3nc4cc(Cl)ccc4c(NCCCCCCCCCNc4c5c(nc6ccccc46)CCCC5)c3C(C1)C2.Cl.Cl.Cl` (racemic), the Papp at 4 h in series [5] was determined as 6 ×10⁻⁶ cm/s.
For `CC1=CC2Cc3nc4cc(Cl)ccc4c(NCCCCCCCCNc4c5c(nc6ccccc46)CCCC5)c3C(C1)C2.Cl` (racemic), the negative-log IC50 (pIC50) is 4.21 in series [11]; 7.16 in series [9]; not below 5.00 in series [7]; 8.86 in [2]; 7.13 in series [3]. Further, the Papp at 4 h in series [5] came to 10.2 ×10⁻⁶ cm/s. Also, the inhibition in vivo at 10 µmol/kg in series [10] amounted to 30%.
Take `CC1=CC2Cc3nc4cc(Cl)ccc4c(NCCCCCCCNc4c5c(nc6cc(Cl)ccc46)CCCC5)c3C(C1)C2.Cl.Cl.Cl.Cl` (racemic): the negative logarithm of the IC50 (pIC50) in series [2] is 8.40; in [3], 7.13. The apparent permeability coefficient (Papp) at 4 h in [5] came out at 20.9 ×10⁻⁶ cm/s.
Regarding `CC1=C[C@H]2Cc3nc4cc(Cl)ccc4c(NCCCCCCCNc4c5c(nc6ccccc46)CCCC5)c3[C@@H](C1)C2`, the pIC50 is not below 5.00 in series [7], 8.16 in [2] and 6.86 in series [3].
